The source of these data is patent US20180289637A1, “SUBSTITUTED CYCLOHEXANONES” (CLEXIO BIOSCIENCES LTD., priority 2016, published 2018).

The nature of data set [1]: In vitro metabolism in rat liver microsomes. The note with it: 15 min, 10 μM, listed as d2 S-ketamine. On the procedure:
(§1) Incubations were initiated by the addition of nicotinamine adenine dinucleotide phosphate (NADPH, 1 mM) and terminated by the addition of methanol. Samples were vortex mixed, stored on ice, and the samples were centrifuged at 1400×g for 5 minutes. Supernatants were removed from the microsome pellets and stored in new tubes at approximately −20° C. until analysis.
(§2) Metabolites generated in microsome incubation samples were characterized by LC-MS/MS using a LTQ Orbitrap XL with electrospray ionization in positive ion mode. Semi-quantitation of the metabolites present in the samples was based on LC MS peak areas of the putative metabolites.
For orientation: Liver microsomes are vesicles of endoplasmic reticulum, rich in cytochrome P450 enzymes.

Data set [2] can be described thus: In vitro metabolism in human liver microsomes. The note with it: 30 min, 10 μM, listed as d2 S-ketamine. On the procedure: as §1, §2
For data set [3], the system named is SD male rats. The experiment in a line: Forced Swim Test (rats), Example 14. The data set is classed as in vivo. Here is the method: The compounds were prepared by a chemist and coded, so the researcher was blinded to the treatment.
Data set [4] is described as follows: Oral Single Dose PK Study in Rats. On the procedure:
Male SD rats, 3 per timepoint, alternative timepoints, were used. […] Plasma was sampled at 10 min, 30 min, 1 h, 2 h, 3 h, 4 h, 7 h, 12 h, 24 h, and 30 h. The PK of the parent compound (deuterated and non-deuterated), as well as norketamine (deuterated and non-deuterated), 6-OH-norketamine (deuterated and non-deuterated), and dehydronorketamine (deuterated and non-deuterated) were analyzed.

For data set [5], the system named is SD male rats. The experiment in a line: Forced Swim Test (rats), Example 12.
Another data set has as its system C57Bl/6 strain mice. The experiment in a line: Tail Suspension Test (mice), Example 13. As to conditions: 120 mg/kg oral gavage.
A short description of data set [6]: In Vitro Liver Microsomal Stability Assay. As to conditions: 1 μM, 0.5 mg per mL liver microsomal protein, about 37° C.
Experimental: Test articles were added for a final assay concentration of 1 μM and incubated at about 37° C. Reactions were started by addition of the cofactor, and were stopped at four designated time points (0, 15, 30 and 60 min) by the addition of an equal volume of stop reagent (e.g., acetonitrile containing an internal standard, 0.2 mL). Samples were then centrifuged at 920×g centrifugal force for 10 min at 10° C. to precipitate the proteins. Supernatants were analysed by LC/MS/MS.
For the next data set, the system named is NMDA receptor. The note with it: inhibition of MK-801 binding; cited from earlier work.
A short description of data set [7]: Stability of alpha-d2-(R/S)-ketamine in phosphate-buffered saline at various pH levels. Type of data set: physicochemical. On the procedure: Incubations of (d2) (R/S)-ketamine (e.g., 1 μM) with PBS (pH 2.0, 7.4 and 8.4) were carried out using a Tecan Liquid Handling System (Tecan), or equivalent, at 37±1° C. in 0.2-mL incubation mixtures (final volume) containing PBS, at the final concentrations indicated in a 96-well plate format. The test article was added to the incubation mixtures in water. […] Incubations were carried out in triplicate with an exception for zero-time samples (which were incubated in quadruplicate). The samples were centrifuged (e.g., 920×g for 10 min at 10° C.) and the supernatant fractions analyzed by LC-MS/MS. Non-deuterated (d0) (R/S)-ketamine was used as an internal standard. The amount of unchanged test article and formation of non-deuterated (d0) (R/S)-ketamine was monitored based on peak area ratio of the analyte/internal standard.

The conditions of data set [8]: in vivo; cited from earlier work.
Setting [9] is: male, SD, rat, plasma, po, 15 mg/kg.
Setting [10] is: male, SD, rat, plasma, po, 15 mg/kg, AUC0-t of Esketamine (deuterated and non-deuterated), 15 mg/kg p.o., rats.
Where [11] appears, read: male, SD, rat, plasma, po, 15 mg/kg, AUC0-t, 15 mg/kg p.o., male SD rats.
Where [12] appears, read: male, SD, rat, plasma, po, 60 mg/kg.
Where [13] appears, read: male, SD, rat, plasma, po, 60 mg/kg, AUC0-t of Esketamine (deuterated and non-deuterated), 60 mg/kg p.o., rats.
Where [14] appears, read: male, SD, rat, plasma, po, 60 mg/kg, AUC0-t, 60 mg/kg p.o., male SD rats.

As to `[2H]C1([2H])CCC[C@](NC)(c2ccccc2Cl)C1=O` [Example 1, (2S)-2-(2-chlorophenyl)-6,6-dideuterio-2-[deuterio(methyl)amino]cyclohexanone, deuterium chloride], the “% Peak Area, component S-ketamine (parent remaining)” value in data set [1] was determined as 2.6%; in data set [2], 33.6%. Further, in the data set on SD male rats [3] (30 min before the test), the “effect at 30 mg/kg (in words)” value is “less pronounced compared to the lower dose”. Further, the “6-OH norketamine levels (in words)” value in [4] (15 and 60 mg/kg p.o., rats) is given as “lower”. Further, the “Dehydronorketamine as metabolite (in words)” value in data set [4] (15 and 60 mg/kg p.o., rats) was “minor metabolite”. Also, the “Norketamine levels as compared to esketamine (in words)” value in data set [4] (15 and 60 mg/kg p.o., rats) is given as “higher”. Also, the Cmax in data set [4] (setting [9]) was determined as 0.136 µg/mL; in [4] (setting [12]), 0.163 µg/mL. The AUC(0-t) in [4] (setting [10]) is 0.114 µg·h/mL; in data set [4] (setting [11]), 0.114 µg·h/mL; in data set [4] (setting [13]), 0.268 µg·h/mL; in data set [4] (setting [14]) it was 0.268 µg·h/mL. Besides, the “plasma exposure to the parent compound (in words)” value in data set [4] (single oral administration of 15 or 60 mg/kg, male SD rats, S-ketamine D2 vs S-ketamine) is “essentially unchanged”. Besides, the “reduction in immobility time” value with SD male rats [5] (120 mg/kg p.o., 75-90 min after the treatment) is on record as roughly 25%. In addition, the “antidepressant-like effect on immobility time (in words)” value in the data set with SD male rats [5] (60 or 120 mg/kg p.o., 75-90 min after the treatment) is “dose-response trend”. The adverse clinical symptoms entry in the data set on C57Bl/6 strain mice was “adverse clinical symptoms of vocalization, ataxia and drowsiness”. In addition, in [6], the “increase in degradation half-life as compared to non-isotopically enriched ketamine” value was 18%.

Take `CN[C@]1(c2ccccc2Cl)CCCCC1=O` [Esketamine, S-ketamine, reference compound]: in the data set on SD male rats [3] (30 mg/kg, 30 min before the test (route printed as orally, i.p. in table)), the “reduction in immobility time” value is 60%. In data set [4] (15 and 60 mg/kg p.o., rats), the “Dehydronorketamine as metabolite (in words)” value is given as “minor metabolite”. Moreover, the Cmax in [4] (setting [9]) worked out at 0.2 µg/mL; in [4] (setting [12]), 0.165 µg/mL. For the same compound, the Tmax in data set [4] (setting [9]) was 0.5 h. Further, the AUC(0-t) in data set [4] (setting [10]) turned out to be 0.183 µg·h/mL; in data set [4] (setting [11]) it was 0.183 µg·h/mL; in [4] (setting [13]) it was 0.498 µg·h/mL; in data set [4] (male, SD, rat, plasma, po, 60 mg/kg, AUC0-t of Esketamine, value in brackets (24 hr time point excluded), 60 mg/kg p.o., rats), 0.311 µg·h/mL; in [4] (setting [14]), 0.498 µg·h/mL; in [4] (male, SD, rat, plasma, po, 60 mg/kg, AUC0-t, 24 hr time point excluded, 60 mg/kg p.o., 24 hr time point excluded (7 hr was BLQ)) it was 0.311 µg·h/mL. In addition, the adverse clinical symptoms result with C57Bl/6 strain mice is “adverse clinical symptoms of vocalization, ataxia and drowsiness”. Moreover, the mortality entry in the data set with C57Bl/6 strain mice (20 minutes after the oral gavage) is “One of the animals was found dead”.

Turning to `N[C@]1(c2ccccc2Cl)CCCCC1=O` [(S)-norketamine], the “affinity for the NMDA receptor relative to the (R)-enantiomer” value with NMDA receptor was 8 times.

Take `[2H]C1([2H])CCCC(NC)(c2ccccc2Cl)C1=O` (racemic) [d2-ketamine, alpha-d2-(R/S)-ketamine]: in data set [7] (PBS pH 2.0, 37±1° C.), the “Mean percent remaining (0 min)” value was 100%, the “Mean percent remaining (30 min)” value is 94.6%, the “Mean percent remaining (60 min)” value came out at 98.8% and the “Mean percent remaining (120 min)” value was 93.9%. In data set [7] (PBS pH 7.4, 37±1° C.), the “Mean percent remaining (0 min)” value came out at 100%, the “Mean percent remaining (30 min)” value was determined as 98.3%, the “Mean percent remaining (60 min)” value was found to be 99.0% and the “Mean percent remaining (120 min)” value turned out to be 96.0%. Moreover, in data set [7] (PBS pH 8.4, 37±1° C.), the “Mean percent remaining (0 min)” value is on record as 100%, the “Mean percent remaining (30 min)” value was 96.4%, the “Mean percent remaining (60 min)” value was determined as 99.6% and the “Mean percent remaining (120 min)” value is listed as 95.1%.

With `CNC1(c2ccccc2Cl)CCCCC1=O` (racemic) [Ketamine, ketamine, reference compound], the elimination half-life in data set [8] is 2 to 3 h. For the same compound, the “reduction in immobility time by manual counting” value in the data set with SD male rats [5] (30 mg/kg i.p., 30 min before test) was 54%.

`NC1(c2ccccc2Cl)CCCCC1=O` (racemic) [norketamine, N-desmethylketamine]: in [8], the elimination half-life was 4 h.

Usually Cmax stands for the peak of the concentration-time curve. As usually defined, the AUC(0-t) is the area under the concentration-time curve up to a stated or last time point. Higher therefore signals high exposure. Usually Tmax stands for the time at which the peak concentration occurs.
